Values of other authors, collected in patent US8188116B2, “Agents for therapy efficacy monitoring and deep tissue imaging” (Vanderbilt University, priority 2002, dated 2012).

Tested on: PBR
Settings: in words, background statement

## COc1ccc(OC)c(CN(C(C)=O)c2cc(F)ccc2Oc2ccccc2)c1 [DAA1106]
  binding affinity for PBR: fentomolar
